# Results as given in PMC11303713, “Allosteric inhibition of CFTR gating by CFTRinh-172 binding in the pore” (Nature Communications, 2024).
# Values joined by “and” are separate entries in the source; they are usually repeats but may differ in a detail not shown here. Identical values can stand only once. Like-named read-outs stand apart in the source and are kept apart here.
# Experiments:
# Assay in all cases: Inside-out patch-clamp inhibition of CFTR current by Inh-172
# Format in all cases: cell-based
# [1] = target: T1, h-pTMD1-h-CFTR (human CFTR with pig CFTR's TMD1) (Homo sapiens, UniProt P13569, A209T/D426N/E115A/E407K/F315L/F87I/G228A/I125V/I215L/I231V/I328L/I332M/L145P/N418S/N445S/P41S/Q39H/R242K/S256N/T421I/V11I/V12F/V43S)
# T1 construct: expressed in transfected cells; host or cells: CHO cells, pcDNA plasmid
# T1 sequence (P13569 1-1480 with the stated changes): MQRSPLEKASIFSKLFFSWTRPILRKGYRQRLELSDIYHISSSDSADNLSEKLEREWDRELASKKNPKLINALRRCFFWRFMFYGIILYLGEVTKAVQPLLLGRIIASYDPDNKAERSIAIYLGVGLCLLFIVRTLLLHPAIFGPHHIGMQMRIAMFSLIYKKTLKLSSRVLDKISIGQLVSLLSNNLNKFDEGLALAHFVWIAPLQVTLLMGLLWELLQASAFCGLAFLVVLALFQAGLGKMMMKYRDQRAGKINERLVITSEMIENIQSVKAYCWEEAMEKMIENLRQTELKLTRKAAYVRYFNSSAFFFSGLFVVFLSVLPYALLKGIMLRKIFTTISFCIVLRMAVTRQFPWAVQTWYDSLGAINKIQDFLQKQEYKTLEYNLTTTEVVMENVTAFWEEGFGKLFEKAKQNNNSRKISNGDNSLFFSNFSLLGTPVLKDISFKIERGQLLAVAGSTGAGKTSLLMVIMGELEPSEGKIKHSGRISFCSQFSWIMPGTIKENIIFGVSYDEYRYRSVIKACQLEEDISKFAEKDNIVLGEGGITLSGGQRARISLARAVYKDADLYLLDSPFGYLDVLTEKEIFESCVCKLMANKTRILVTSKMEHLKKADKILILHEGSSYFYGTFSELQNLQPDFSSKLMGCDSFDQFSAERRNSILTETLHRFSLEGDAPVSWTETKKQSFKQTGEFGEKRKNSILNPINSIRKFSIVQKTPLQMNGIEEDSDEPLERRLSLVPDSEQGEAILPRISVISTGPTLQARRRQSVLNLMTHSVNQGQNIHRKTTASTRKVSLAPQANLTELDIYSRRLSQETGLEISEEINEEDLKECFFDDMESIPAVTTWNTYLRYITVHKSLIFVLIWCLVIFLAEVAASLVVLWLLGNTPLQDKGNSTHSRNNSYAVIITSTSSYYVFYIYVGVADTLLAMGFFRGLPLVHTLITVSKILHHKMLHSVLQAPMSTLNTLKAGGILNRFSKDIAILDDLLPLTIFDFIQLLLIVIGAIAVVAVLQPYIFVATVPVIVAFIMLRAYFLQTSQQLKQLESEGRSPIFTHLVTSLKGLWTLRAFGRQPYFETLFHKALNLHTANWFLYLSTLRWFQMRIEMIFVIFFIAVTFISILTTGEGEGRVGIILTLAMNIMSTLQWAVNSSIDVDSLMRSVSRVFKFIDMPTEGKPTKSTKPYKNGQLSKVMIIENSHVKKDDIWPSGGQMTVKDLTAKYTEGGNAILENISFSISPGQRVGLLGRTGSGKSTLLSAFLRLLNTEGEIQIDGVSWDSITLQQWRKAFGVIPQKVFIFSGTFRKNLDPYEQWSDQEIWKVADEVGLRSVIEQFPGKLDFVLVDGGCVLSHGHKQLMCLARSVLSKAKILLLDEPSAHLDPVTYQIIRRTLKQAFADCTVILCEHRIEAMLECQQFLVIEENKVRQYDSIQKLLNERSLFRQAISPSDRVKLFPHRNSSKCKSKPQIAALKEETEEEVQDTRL
# Method: (§1) CHO cells were grown at 37 °C in Dulbecco’s modified Eagle’s medium supplemented with 10% (vol/vol) fetal bovine serum (Sigma-Aldrich, St. Louis, MO). pcDNA plasmids carrying the desired CFTR construct were transfected to CHO cells using PolyFect transfection reagent (Qiagen, Hilden, Germany) together with green fluorescence protein (GFP) cDNA (pEGFP-C3, Takara Bio, Shiga, Japan) that helps identify expression of CFTR. Cells were first incubated with the transfection reagents at 37 °C for 6-12 hours on sterile glass chips in 35-mm tissue culture dishes before transferred to 27 °C for incubation for 2–7 days. Primers for mutations were ordered from Integrated DNA Technologies (Coralville, IA) and were summarized in Supplementary Data. All CFTR mutants were prepared with QuikChange XL kit (Agilent, Santa Clara, CA) and sequenced at the DNA Core facility at University of Missouri-Columbia.
# (§2) Patch-clamp pipettes were made from borosilicate capillary glass using a two-stage vertical puller (PP-81; Narishige, Amityville, NY). The pipette tips were fire polished with a homemade microforge to yield a pipette resistance of 2–5 MΩ when filled with a pipette solution containing (in mM): 140 NMDG-Cl (N-methyl-D-glucamine-chloride), 5 CaCl2, 2 MgCl2, and 10 HEPES, pH 7.4. For recordings, transfected cells on glass chips were transferred into a continuously perfused chamber on the stage of an inverted microscope (IX51; Olympus, Tokyo, Japan) with the perfusing solution containing (in mM): 150 NMDG-Cl, 2 MgCl2, 10 EGTA, 8 Tris, and 10 HEPES, pH 7.4. The membrane patch was excised to an inside-out configuration with a seal resistance >40 GΩ. CFTR currents were recorded with an amplifier (EPC9; HEKA, Holliston, MA), filtered through an eight-pole Bessel filter (LPF-8; Warner Instruments, Hamden, CT) at 100 Hz and digitized to a computer at a sampling rate of 500 Hz with Pulse software (version 8.53; HEKA). The membrane potential was held at −30 mV. Solution exchange was achieved by a fast solution change system (SF-77B; Warner Instruments). Inh-172 was obtained from the CFTR Chemical Compound Program supported by the Cystic Fibrosis Foundation. All experiments were performed at room temperature.
# (§3) The steady state mean currents were measured in the Igor Pro software (version 8.0; WaveMetrics). The mean baseline currents were subtracted from the steady state mean currents before the data were used to determine the degrees of inhibition. The degrees of inhibition by CFTR inhibitor 172 were calculated based on the equation:1 %inhibition=1−IInh−172/I0X100% where I0 and Iinh−172 represent uninhibited and inhibited currents, respectively. The IC50 and Hill coefficients were obtained by fitting percent inhibition as a function of [Inh-172] with the Hill equation:2 %inhibition=base+(max−base)/1+xhalf/x^rate where max and base represent the […] percent inhibition by Inh-172, x represents the concentration of Inh-172, and the rate is the Hill coefficient. The estimated IC50 (xhalf) and Hill coefficients are listed in Table 1 as mean ± standard deviation. Each patch-clamp recording was made from a separate cell.
# [2] = target: T2, W1145A-CFTR (Homo sapiens, UniProt P13569, W1145A)
# T2 construct: expressed in transfected cells; host or cells: CHO cells, pcDNA plasmid
# T2 sequence (P13569 whole entry W1145A): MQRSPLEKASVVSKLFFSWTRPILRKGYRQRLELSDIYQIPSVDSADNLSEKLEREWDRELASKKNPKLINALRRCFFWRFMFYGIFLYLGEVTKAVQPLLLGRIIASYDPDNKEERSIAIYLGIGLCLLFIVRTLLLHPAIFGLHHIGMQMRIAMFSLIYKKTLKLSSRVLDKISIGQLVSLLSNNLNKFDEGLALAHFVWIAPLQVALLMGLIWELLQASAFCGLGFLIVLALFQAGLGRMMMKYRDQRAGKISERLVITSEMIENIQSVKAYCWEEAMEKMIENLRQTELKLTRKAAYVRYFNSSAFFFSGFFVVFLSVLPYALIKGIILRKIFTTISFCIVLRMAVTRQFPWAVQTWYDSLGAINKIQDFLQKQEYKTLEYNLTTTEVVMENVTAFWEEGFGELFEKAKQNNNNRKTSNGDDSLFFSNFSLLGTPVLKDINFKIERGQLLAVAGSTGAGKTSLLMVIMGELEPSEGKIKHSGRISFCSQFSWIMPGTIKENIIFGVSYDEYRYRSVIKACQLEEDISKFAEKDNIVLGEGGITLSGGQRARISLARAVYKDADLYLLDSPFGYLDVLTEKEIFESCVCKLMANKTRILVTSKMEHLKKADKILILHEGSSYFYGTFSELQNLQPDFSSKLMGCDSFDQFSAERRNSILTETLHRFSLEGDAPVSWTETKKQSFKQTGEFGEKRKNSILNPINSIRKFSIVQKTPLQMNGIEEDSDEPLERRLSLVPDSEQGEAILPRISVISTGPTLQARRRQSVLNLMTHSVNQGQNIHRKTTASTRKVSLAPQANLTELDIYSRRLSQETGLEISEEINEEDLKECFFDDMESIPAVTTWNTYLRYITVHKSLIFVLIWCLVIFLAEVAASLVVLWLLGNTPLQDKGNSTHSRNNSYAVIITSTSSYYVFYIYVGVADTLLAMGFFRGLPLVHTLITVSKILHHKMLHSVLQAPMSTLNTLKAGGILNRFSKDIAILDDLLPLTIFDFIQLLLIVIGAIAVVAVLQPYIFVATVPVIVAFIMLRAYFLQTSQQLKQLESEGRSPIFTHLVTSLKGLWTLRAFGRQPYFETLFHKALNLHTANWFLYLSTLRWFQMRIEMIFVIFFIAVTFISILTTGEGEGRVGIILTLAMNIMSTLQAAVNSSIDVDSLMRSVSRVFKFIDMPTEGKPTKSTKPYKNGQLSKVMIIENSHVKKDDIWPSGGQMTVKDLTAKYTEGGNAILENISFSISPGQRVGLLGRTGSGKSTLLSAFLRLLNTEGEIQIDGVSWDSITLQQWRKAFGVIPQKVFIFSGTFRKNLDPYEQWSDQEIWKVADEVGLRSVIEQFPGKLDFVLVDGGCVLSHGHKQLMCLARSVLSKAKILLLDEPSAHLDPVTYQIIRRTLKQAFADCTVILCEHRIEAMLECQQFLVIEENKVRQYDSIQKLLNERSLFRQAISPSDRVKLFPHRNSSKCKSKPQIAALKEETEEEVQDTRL
# Method: as §1, §2, §3
# [3] = target: T3, T1142I-CFTR (Homo sapiens, UniProt P13569, T1142I); details: for inhibition at 0.1 µM: 100 nM Inh-172; for inhibition at 0.5 µM: 500 nM Inh-172; for inhibition at 1 µM: 1000 nM Inh-172; for inhibition at 5 µM: 5000 nM Inh-172; for inhibition at 10 µM: 10000 nM Inh-172
# T3 construct: expressed in transfected cells; host or cells: CHO cells, pcDNA plasmid
# T3 sequence (P13569 whole entry T1142I): as the sequence (P13569 whole entry W1145A) above, with T1142I, A1145W counted along it
# Method: as §1, §2, §3
# [4] = 100 nM Inh-172, read-out: percent inhibition of current, Mean
# [5] = 500 nM Inh-172, read-out: percent inhibition of current, Mean
# [6] = 500 nM Inh-172, read-out: percent inhibition of current, individual cell
# [7] = 1000 nM Inh-172, read-out: percent inhibition of current, Mean
# [8] = 10000 nM Inh-172, read-out: percent inhibition of current, Mean
# [9] = 10000 nM Inh-172, read-out: percent inhibition of current, individual cell
# [10] = read-out: percent inhibition of current, Mean
# [11] = read-out: percent inhibition of current, individual cell
compound,measurement,setting,value
"O=C(O)c1ccc(/C=C2\SC(=S)N(c3cccc(C(F)(F)F)c3)C2=O)cc1 [Inh-172, CFTRinh-172]","percent inhibition of current, individual cell",[1]; 50 nM Inh-172,45.0 and 25.0
same,inhibition at 0.05 µM,"[1]; 50 nM Inh-172, read-out: percent inhibition of current, Mean",35.8%
same,inhibition at 0.05 µM,"[1]; 50 nM Inh-172, read-out: percent inhibition of current, individual cell",34%
same,"percent inhibition of current, individual cell",[1]; 100 nM Inh-172,51.0 and 37.0 and 50.0
same,inhibition at 0.1 µM,[1]; [4],44.3%
same,inhibition at 0.1 µM,"[1]; 100 nM Inh-172, read-out: percent inhibition of current, individual cell",39%
same,"percent inhibition of current, individual cell",[1]; 500 nM Inh-172,86.0 and 76.0
same,inhibition at 0.5 µM,[1]; [5],81.8%
same,inhibition at 0.5 µM,[1]; [6],79%
same,"percent inhibition of current, individual cell",[1]; 1000 nM Inh-172,94.0 and 89.0
same,inhibition at 1 µM,[1]; [7],92%
same,inhibition at 1 µM,"[1]; 1000 nM Inh-172, read-out: percent inhibition of current, individual cell",91%
same,"percent inhibition of current, individual cell",[1]; 10000 nM Inh-172,100.0
same,inhibition at 10 µM,[1]; [8],99.8%
same,inhibition at 10 µM,[1]; [9],99%
same,Hill Coefficient,[1]; h-pTMD1-h,0.98 ± 0.10
same,IC50,[1]; h-pTMD1-h,0.11 ± 0.01 µM
same,"percent inhibition of current, individual cell",[2]; 100 nM Inh-172,2 and 8 and 0.5
same,inhibition at 0.1 µM,[2]; [4],3.5%
same,"percent inhibition of current, individual cell",[2]; 500 nM Inh-172,32 and 33
same,inhibition at 0.5 µM,[2]; [5],37.3%
same,inhibition at 0.5 µM,[2]; [6],42%
same,"percent inhibition of current, individual cell",[2]; 1000 nM Inh-172,60 and 69 and 44 and 52 and 49
same,inhibition at 1 µM,[2]; [7],54.8%
same,"percent inhibition of current, individual cell",[2]; 5000 nM Inh-172,89 and 75 and 91 and 80
same,inhibition at 5 µM,"[2]; 5000 nM Inh-172, read-out: percent inhibition of current, Mean",85%
same,inhibition at 5 µM,"[2]; 5000 nM Inh-172, read-out: percent inhibition of current, individual cell",90%
same,"percent inhibition of current, individual cell",[2]; 10000 nM Inh-172,86 and 88
same,inhibition at 10 µM,[2]; [8],89.8%
same,inhibition at 10 µM,[2]; [9],95%
same,Hill Coefficient,[2]; W1145A,1.08 ± 0.12
same,IC50,[2]; W1145A,0.88 ± 0.09 µM
same,inhibition at 0.1 µM,[3]; [10],7.2%
same,inhibition at 0.1 µM,[3]; [11],5%
same,inhibition at 0.5 µM,[3]; [10],22.5%
same,inhibition at 0.5 µM,[3]; [11],22%
same,inhibition at 1 µM,[3]; [10],39.3%
same,inhibition at 1 µM,[3]; [11],38%
same,inhibition at 5 µM,[3]; [10],78.3%
same,inhibition at 5 µM,[3]; [11],78%
same,inhibition at 10 µM,[3]; [10],90.7%
same,inhibition at 10 µM,[3]; [11],90%
same,Hill Coefficient,[3]; T1142I,1.12 ± 0.05
same,IC50,[3]; T1142I,1.49 ± 0.07 µM
